Data taken from US20200354348A1, “SEMISYNTHETIC AURONES AND METHODS OF USE THEREOF” (University of Kentucky Research Foundation, priority 2018, published 2020).

Tests used:
LS174T cells = test: Proliferation inhibition assay, LS174T; format: cell-based; details: for inhibition at 1 µM / inhibition at 10 µM: Homo sapiens, LS174T
Protocol: (§1) Cell Culture. LS174T (colon cancer cells), PC-3 (prostate cancer cells), MCF-7 (beast) and A549 (lung) were cultured in the medium recommended by American Type Culture Collection at 37° C. with 5% CO2 atmosphere in a water jacketed incubator. Ovcar-8 and NCI/ADR-RES are gifts from Dr. Markos Leggas. Alpha-tubulin antibodies, TRITC-conjugated anti-rabbit antibody.
(§2) Proliferation inhibition assay. Cancer cells were seeded into 24-well plates at a density of 20,000 cells per well in 1 mL of culture medium and cultured overnight at 37° C. Compounds and the vehicle control DMSO were added to the cells. After 6 days, medium was removed and 100 μL of trypsin was added. Then the cells resuspended in pbs were counted by Vi-CELL XR 2.03 (Beckman Coulter, Inc. USA). The ratio R of the number of viable cells in the compound treatment group to the number of viable cells in DMSO treatment group was taken as relative growth, and the percentage growth inhibition was calculated as: (1−R)*100. For initial testing, compounds were added to the cells at a final concentration 10 μM. Active compounds at 10 μM would be tested at lower concentrations.

PC-3 cells = test: Proliferation inhibition assay, PC-3; format: cell-based
Protocol: as §1, §2

[1] = Homo sapiens, PC-3, 1 μM, Table 1
[2] = Homo sapiens, PC-3, 10 μM, Table 1
[3] = Homo sapiens, PC-3, 1 μM, Table 2
[4] = Homo sapiens, PC-3, 10 μM, Table 2

Work on COc1ccc2c(c1)c(/C=C1\Oc3cc(OCc4ccc(F)cc4Cl)ccc3C1=O)cn2C [Aurone 4j, (2Z)-6-[(2-Chloro-4-fluorobenzyl)oxy]-2-[(5-methoxy-1-methyl-1H-indol-3-yl)methylene]-1-benzofuran-3(2H)-one] yielded a melting point of 184 to 186 °C.

For COc1cccc2ccc(/C=C3\Oc4cc(O)ccc4C3=O)nc12 [Aurone 3g, (2Z)-6-Hydroxy-2-[(8-methoxyquinolin-2-yl)methylene]-1-benzofuran-3(2H)-one], the melting point was 250 to 252 °C.

Cn1cc(/C=C2\Oc3cc(OCc4c(Cl)cccc4Cl)ccc3C2=O)c2ccccc21 [Aurone 4g, (2Z)-6-[(2,6-Dichlorobenzyl)oxy]-2-[(1-methyl-1H-indol-3-yl)methylene]-1-benzofuran-3(2H)-one] showed a melting point of 247 to 249 °C.

For O=C1/C(=C/c2ccc(N3CCCC3)cc2)Oc2cc(O)ccc21 [Aurone 2a], the inhibition at 1 µM (LS174T cells; 1 μM, Table 1) was 0%, the inhibition at 10 µM (LS174T cells; 10 μM, Table 1) was 23 ± 2.9% and the inhibition at 1 µM (PC-3 cells; [1]) was 2.1 ± 7.1%. For the same compound, the inhibition at 10 µM (PC-3 cells; [2]) was 95 ± 4.7%.

With CCn1cc(/C=C2\Oc3cc(OCC#N)ccc3C2=O)c2cc(O)ccc21 [Aurone 4b] the “Inhibition of LS174T Cells 1 μM” value (LS174T cells; 1 μM, Table 2) was 26 ± 15%, the “Inhibition of LS174T Cells 10 μM” value (LS174T cells; 10 μM, Table 2) was 83 ± 4.8% and the “Inhibition of PC-3 Cells 300 nM” value (PC-3 cells; 300 nM, Table 2) was 24 ± 11%. For the same compound, the “Inhibition of PC-3 Cells 1 μM” value (PC-3 cells; 1 μM, Table 2) was 96 ± 2% and the “Inhibition of PC-3 Cells 10 μM” value (PC-3 cells; 10 μM, Table 2) was 96 ± 1.6%.

For CCn1cc(/C=C2\Oc3cc(OCc4ccccc4F)ccc3C2=O)c2cc(OC)ccc21 [Aurone 4n], the inhibition at 1 µM (LS174T cells; 1 μM, Table 2) was 0%, the inhibition at 10 µM (LS174T cells; 10 μM, Table 2) was 28 ± 11% and the inhibition at 1 µM (PC-3 cells; [3]) was 28 ± 15%. For the same compound, the inhibition at 10 µM (PC-3 cells; [4]) was 52 ± 23%.

In the case of Cn1cc(/C=C2\Oc3cc(O)ccc3C2=O)c2ccccc21 [Aurone 3j], the inhibition at 10 µM (LS174T cells; 10 μM, Table 1) is reported as 54 ± 15% and the inhibition at 10 µM (PC-3 cells; [2]) is reported as 41 ± 25%.

In the case of O=C1/C(=C/c2ccccn2)Oc2cc(O)ccc21 [Aurone 3a], the inhibition at 10 µM (LS174T cells; 10 μM, Table 1) is reported as 0% and the inhibition at 10 µM (PC-3 cells; [2]) is reported as 8.8 ± 15%.

O=C1/C(=C/c2ccccn2)Oc2cc(O)ccc21 [Aurone 3a, (2Z)-6-Hydroxy-2-(pyridin-2-ylmethylene)-1-benzofuran-3(2H)-one] gave a melting point of 246 to 248 °C.

In the case of O=C1/C(=C/c2ccc(N3CCOCC3)cc2)Oc2cc(O)ccc21 [Aurone 2b], the inhibition at 10 µM (LS174T cells; 10 μM, Table 1) is reported as 0% and the inhibition at 10 µM (PC-3 cells; [2]) is reported as 7.8 ± 7.7%.

Work on O=C1/C(=C/c2ccnc3ccccc23)Oc2cc(O)ccc21 [Aurone 3h, (2Z)-6-Hydroxy-2-(quinolin-4-ylmethylene)-1-benzofuran-3(2H)-one] yielded a melting point of 278 to 280 °C.

In the case of O=C1/C(=C/c2c[nH]c3ccccc23)Oc2cc(O)ccc21 [Aurone 3i], the inhibition at 10 µM (LS174T cells; 10 μM, Table 1) is reported as 44 ± 8.6% and the inhibition at 10 µM (PC-3 cells; [2]) is reported as 20 ± 6.8%.

CCn1cc(/C=C2\Oc3cc(O)ccc3C2=O)c2cc(OC)ccc21 [Aurone 3l] showed an inhibition at 1 µM (LS174T cells; 1 μM, Table 1) of 4.5 ± 7.3%, an inhibition at 10 µM (LS174T cells; 10 μM, Table 1) of 83 ± 1.2% and an inhibition at 1 µM (PC-3 cells; [1]) of 13 ± 9.5%. It also gave an inhibition at 10 µM (PC-3 cells; [2]) of 69 ± 16%.

COc1ccc2nc(/C=C3\Oc4cc(O)ccc4C3=O)ccc2c1 [Aurone 3f] gave an inhibition at 10 µM (LS174T cells; 10 μM, Table 1) of 6.1 ± 13% and an inhibition at 10 µM (PC-3 cells; [2]) of 8.4 ± 33%.

For COc1ccc2c(c1)c(/C=C1\Oc3cc(OCc4c(F)cccc4Cl)ccc3C1=O)cn2C [Aurone 4k], the inhibition at 10 µM (LS174T cells; 10 μM, Table 2) was 53 ± 8.9% and the inhibition at 10 µM (PC-3 cells; [4]) was 57 ± 18%.

With Cn1cc(/C=C2\Oc3cc(OCc4c(F)cccc4F)ccc3C2=O)c2ccccc21 [Aurone 4f] the inhibition at 10 µM (LS174T cells; 10 μM, Table 2) was 0.5 ± 1.7% and the inhibition at 10 µM (PC-3 cells; [4]) was 82 ± 4.3%.

COc1ccc2c(c1)c(/C=C1\Oc3cc(O)ccc3C1=O)cn2C [Aurone 3k] showed an inhibition at 1 µM (LS174T cells; 1 μM, Table 1) of 13 ± 2.4%, an inhibition at 10 µM (LS174T cells; 10 μM, Table 1) of 63 ± 0.7% and an inhibition at 1 µM (PC-3 cells; [1]) of 17 ± 5.5%. For the same compound, the inhibition at 10 µM (PC-3 cells; [2]) was 35 ± 28%.

In the case of O=C1/C(=C/c2nccc3ccccc23)Oc2cc(O)ccc21 [Aurone 3d], the inhibition at 1 µM (LS174T cells; 1 μM, Table 1) is reported as 2.7 ± 6.4%, the inhibition at 10 µM (LS174T cells; 10 μM, Table 1) is reported as 79 ± 3.6% and the inhibition at 10 µM (PC-3 cells; [2]) is reported as 88 ± 5.5%.

In the case of CCn1cc(/C=C2\Oc3cc(OCc4c(F)cccc4Cl)ccc3C2=O)c2ccccc21 [Aurone 4p], the inhibition at 1 µM (LS174T cells; 1 μM, Table 2) is reported as 5.1 ± 19%, the inhibition at 10 µM (LS174T cells; 10 μM, Table 2) is reported as 93 ± 3.2% and the inhibition at 0.3 µM (PC-3 cells; Homo sapiens, PC-3, 300 nM, Table 2) is reported as 44 ± 5.6%. For the same compound, the inhibition at 1 µM (PC-3 cells; [3]) was 91 ± 2.2% and the inhibition at 10 µM (PC-3 cells; [4]) was 95 ± 4.4%.

Cn1cc(/C=C2\Oc3cc(OCc4ccccc4Cl)ccc3C2=O)c2ccccc21 [Aurone 4e] gave an inhibition at 10 µM (LS174T cells; 10 μM, Table 2) of 0% and an inhibition at 10 µM (PC-3 cells; [4]) of 20 ± 6.6%.

For Cn1cc(/C=C2\Oc3cc(OCc4c(F)cccc4Cl)ccc3C2=O)c2ccccc21 [Aurone 4h], the inhibition at 10 µM (LS174T cells; 10 μM, Table 2) was 38 ± 2%, the inhibition at 1 µM (PC-3 cells; [3]) was 0% and the inhibition at 10 µM (PC-3 cells; [4]) was 31 ± 40%.
